Results taken from patent publication US7053082B1, “2,3-benzodiazepine derivatives” (priority 1999, dated 2006).

Experiments:
[1] = Duration of action in rats as assessed from the decrease in body core temperature; type: in vivo; settings: male Wistar rats, i.p.; for PE, Δ ° C. (peak effect, maximum decrease in body temperature): radiotelemetry core body temperature, versus last value prior to treatment; for D, hours (duration of action): time from treatment to return of body temperature to the control level
Description: At least one week prior to treatments six male Wistar rats were anaesthetised with pentobarbital-Na (60 mg/kg, i.p.; Nembutal, Phylaxia-Sanofi, Budapest). Using sterile surgical procedures TL11M2-C50-PXT or TA10TA-F40 type radiotelemetry transmitters (Data Sciences International, St. Paul, Minn., USA) permitting continuous monitoring of core body temperature were implanted into the peritoneal cavity of the animals. After surgery the rats were treated with an antibiotic (1 ml/kg b.w. i.m. Tardomyocel, Bayer A G, Leverkusen, Germany). The animals were housed individually in type 2 plastic rat cages with free access to food and tap water. The compounds were dissolved in 5 M hydrochloric acid solution and distilled water (5%/95% v/v) then the pH of the solution was adjusted to 3 using 1 M sodium hydroxide solution. The compounds were administered intraperitoneally in a volume of 10 ml/kg.
Radio signals emitted by the transmitters were detected by RLA1000 type receivers placed under each animal's cage. Data were collected and saved by a Dataquest IV computerised data acquisition system. The computer was set to sample body temperature for 10 seconds in every second minute. Mean values for 30 min periods over the whole day were calculated running the “Sort Utility” of the Dataquest IV. […] The upper and lower limits of the evaluating routine were set to exclude biologically improbable values. Individual body temperature curves were averaged for the six animals.
Peak effect (PE) was measured as the maximum decrease in body temperature in comparison to the last value prior to treatment. Using mean values, duration of action (D) was measured as the time interval from treatment to return of body temperature to the control level.

[2] = tested on: MgCl2-induced global cerebral ischemia in mice; experiment: Neuroprotective effect in MgCl2-induced global cerebral ischemia in mice; type: in vivo; settings: dose that prolonged survival time by 50%; i.p. 30 min before i.v. saturated MgCl2 (5 ml/kg); male NMRI mice
Description: Male NMRI mice weighing 20–25 g were randomly allocated to treatment groups of 10 animals/group. The compounds were dissolved in 5 M hydrochloric acid solution and distilled water (5%/95% v/v) then the pH of the solution was adjusted to 3 using 1 M sodium hydroxide solution. The compounds were administered intraperitoneally in a volume of 10 ml/kg. Each compound was tested at four increasing dose levels and a separate group of animals was treated with the vehicle. Thirty min after treatment all mice received an intravenous bolus injection of saturated MgCl2 solution (5 ml/kg) that caused an immediate cardiac arrest and complete cerebral ischemia. Increases in survival time (interval between the injection of MgCl2 and the last observable gasp) were used as a measure of neuroprotective effect as described by Berga et al.. Percentage changes in survival time were calculated in comparison to that measured in the vehicle treated group. PD50 (the dose that prolonged survival by 50%) was calculated by linear regression analysis using percentage changes in survival time.

melting point [°C] | SMILES | also measured
178 to 181 | CC(=O)N1N=C(c2ccc([N+](=O)[O-])c(C)c2)c2cc3c(cc2CC1C)OCO3 (racemic) | 
 | CNC(=O)N1N=C(c2ccc(N)c(C)c2)c2cc3c(cc2CC1C)OCO3 (racemic) [Example 31, (±)-5-(4-amino-3-methyl-phenyl)-7,8-dihydro-8-methyl-7-(N-methyl-carbamoyl)-9H-1,3-dioxolo[4.5-h][2.3]benzodiazepine] | PE, Δ ° C. (peak effect, maximum decrease in body temperature) [1]: −1.46 °C; D, hours (duration of action) [1]: 20 h
148 to 151 | Cc1cc(C2=NNC(C)(C#N)Cc3cc4c(cc32)OCO4)ccc1[N+](=O)[O-] (racemic) | 
 | CC(=O)N1N=C(c2ccc(N)c(C)c2)c2cc3c(cc2CC1(C)C#N)OCO3 (racemic) [Example 38, (±)-7-acetyl-5-(4-amino-3-methyl-phenyl)-8-cyano-7,8-dihydro-8-methyl-9H-1,3-dioxolo[4.5-h][2.3]benzodiazepine] | PE, Δ ° C. (peak effect, maximum decrease in body temperature) [1]: −1.34 °C; D, hours (duration of action) [1]: 9 h; PD50, mg/kg i.p. [2]: 11.2 mg/kg
 | CONC(=O)N1N=C(c2ccc(N)c(C)c2)c2cc3c(cc2CC1C)OCO3 (racemic) [Example 30, (±)-5-(4-amino-3-methyl-phenyl)-7,8-dihydro-8-methyl-7-(N-methozy-carbamoyl)-9H-1,3-dioxolo[4,5-h][2,3]benzodiazepine] | PD50, mg/kg i.p. [2]: 14.9 mg/kg
191 to 193 | CCC(=O)N1N=C(c2ccc([N+](=O)[O-])c(C)c2)c2cc3c(cc2CC1(C)C#N)OCO3 (racemic) | 
198 to 202 | CC1=Cc2cc3c(cc2C(c2ccc([N+](=O)[O-])c(C)c2)=NN1C(=O)NC1CC1)OCO3 | 
185 to 186 | Cc1cc(C2=NN=C(C(=O)O)Cc3cc4c(cc32)OCO4)ccc1[N+](=O)[O-] | 
189 to 194 | CC1=NN=C(c2ccc([N+](=O)[O-])c(C)c2)c2cc3c(cc2C1)OCO3 | 
222 to 223 | CC(=O)N1N=C(c2ccc(N)c(C)c2)c2cc3c(cc2C=C1C)OCO3 | 
252 to 255 | Cc1cc(C2=NN=C(C#N)Cc3cc4c(cc32)OCO4)ccc1N | 
188 to 191 | Cc1cc(C2=NN=C(C=O)Cc3cc4c(cc32)OCO4)ccc1[N+](=O)[O-] | 
260 to 264 | Cc1cc(C2=NN=C(C=NNC(N)=O)Cc3cc4c(cc32)OCO4)ccc1[N+](=O)[O-] | 
157 to 161 | CC(=O)N1N=C(c2ccc([N+](=O)[O-])c(C)c2)c2cc3c(cc2CC1C(N)=O)OCO3 (racemic) | 
253 to 255 | CC(=O)N1N=C(c2ccc([N+](=O)[O-])c(C)c2)c2cc3c(cc2CC1(C)C#N)OCO3 (racemic) | 
179 to 181 | Cc1cc(C2=NN(C(=O)NC3CC3)C(C)Cc3cc4c(cc32)OCO4)ccc1N (racemic) | 
172 to 175 | CCC(=O)N1N=C(c2ccc([N+](=O)[O-])c(C)c2)c2cc3c(cc2CC1C)OCO3 (racemic) | 

SMILES | melting point [°C] | also measured
CC(=O)N1N=C(c2ccc(N)c(C)c2)c2cc3c(cc2CC1C)OCO3 (racemic) [Example 27, (±)-7-acetyl-5-(4-amino-3-methyl-phenyl)-7,8-dihydro-8-methyl-9H-1,3-dioxolo[4,5-h][2,3]benzodiazepine] | 121 to 123 | PE, Δ ° C. (peak effect, maximum decrease in body temperature) [1]: −1.45 °C; D, hours (duration of action) [1]: >20 h; PD50, mg/kg i.p. [2]: 5.4 mg/kg
